Target: T1, microvirin (MVN) (Microcystis aeruginosa, UniProt Q2MDE2)
T1 construct: full-length, N-terminal hexahistidine tag (pET-15b), E. coli BL21(DE3), Ni-NTA purified, biotinylated with NHS-SS-biotin
T1 sequence (Q2MDE2 1-108): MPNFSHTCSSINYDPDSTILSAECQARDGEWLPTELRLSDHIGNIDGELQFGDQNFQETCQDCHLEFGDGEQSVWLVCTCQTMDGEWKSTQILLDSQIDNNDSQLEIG
Assay: CFG glycan microarray V5.[…], fluorescence
Assay type: binding
Details: biotinylated MVN 200 μg/mL, Alexa Fluor 488-avidin; glycan immobilised via spacer

Molecule	Fluorescence (%) ^a
Manα1-2Manα1-2Manα1-6(Manα1-3)Manα-Sp9 [compound 215]	78.1%
Manα1-2Manα1-3Manα-Sp9 [compound 210]	57.7%
CC(=O)N[C@@H]1[C@@H](O)[C@H](O[C@@H]2O[C@H](CO)[C@@H](O[C@@H]3O[C@H](CO[C@H]4O[C@H](CO[C@H]5O[C@H](CO)[C@@H](O)[C@H](O)[C@@H]5O)[C@@H](O)[C@H](O[C@H]5O[C@H](CO)[C@@H](O)[C@H](O)[C@@H]5O[C@H]5O[C@H](CO)[C@@H](O)[C@H](O)[C@@H]5O)[C@@H]4O)[C@@H](O)[C@H](O[C@H]4O[C@H](CO)[C@@H](O)[C@H](O)[C@@H]4O[C@H]4O[C@H](CO)[C@@H](O)[C@H](O)[C@@H]4O)[C@@H]3O)[C@H](O)[C@H]2NC(C)=O)[C@@H](CO)O[C@H]1NC(=O)C[C@H](N)C(=O)O [compound 211, Manα1-6(Manα1-2Manα1-3)Manα1-6(Manα1-2Manα1-3)Manβ1-4GlcNAcβ1-4GlcNAcβ-Sp12]	31.7%
Manα1-2Manα1-6(Manα1-2Manα1-3)Manα-Sp9 [compound 209]	39.5%
Manα1-2Manα1-2Manα1-3Manα-Sp9 [compound 208]	63.8%
Manα1-2Manα1-6(Manα1-3)Manα1-6(Manα1-2Manα1-2Manα1-3)Manα-Sp9 [compound 316]	48.8%
CC(=O)N[C@@H]1[C@@H](O)[C@H](O[C@@H]2O[C@H](CO)[C@@H](O[C@@H]3O[C@H](CO[C@H]4O[C@H](CO[C@H]5O[C@H](CO)[C@@H](O)[C@H](O)[C@@H]5O[C@H]5O[C@H](CO)[C@@H](O)[C@H](O)[C@@H]5O)[C@@H](O)[C@H](O[C@H]5O[C@H](CO)[C@@H](O)[C@H](O)[C@@H]5O)[C@@H]4O)[C@@H](O)[C@H](O[C@H]4O[C@H](CO)[C@@H](O)[C@H](O)[C@@H]4O[C@H]4O[C@H](CO)[C@@H](O)[C@H](O)[C@@H]4O[C@H]4O[C@H](CO)[C@@H](O)[C@H](O)[C@@H]4O)[C@@H]3O)[C@H](O)[C@H]2NC(C)=O)[C@@H](CO)O[C@H]1NC(=O)C[C@H](N)C(=O)O [compound 212, Manα1-2Manα1-6(Manα1-3)Manα1-6(Manα1-2Manα1-2Manα1-3)Manβ1-4GlcNAcβ1-4GlcNAcβ-Sp12]	100.0%
CC(=O)N[C@@H]1[C@@H](O)[C@H](O[C@@H]2O[C@H](CO)[C@@H](O[C@@H]3O[C@H](CO[C@H]4O[C@H](CO[C@H]5O[C@H](CO)[C@@H](O)[C@H](O)[C@@H]5O[C@H]5O[C@H](CO)[C@@H](O)[C@H](O)[C@@H]5O)[C@@H](O)[C@H](O[C@H]5O[C@H](CO)[C@@H](O)[C@H](O)[C@@H]5O[C@H]5O[C@H](CO)[C@@H](O)[C@H](O)[C@@H]5O)[C@@H]4O)[C@@H](O)[C@H](O[C@H]4O[C@H](CO)[C@@H](O)[C@H](O)[C@@H]4O[C@H]4O[C@H](CO)[C@@H](O)[C@H](O)[C@@H]4O[C@H]4O[C@H](CO)[C@@H](O)[C@H](O)[C@@H]4O)[C@@H]3O)[C@H](O)[C@H]2NC(C)=O)[C@@H](CO)O[C@H]1NC(=O)C[C@H](N)C(=O)O [compound 213, Manα1-2Manα1-6(Manα1-2Manα1-3)Manα1-6(Manα1-2Manα1-2Manα1-3)Manβ1-4GlcNAcβ1-4GlcNAcβ-Sp12]	19.8%
Manα1-2Manα1-6(Manα1-2Manα1-3)Manα1-6(Manα1-2Manα1-2Manα1-3)Manα-Sp9 [compound 317]	34.9%

From PMC4297448, “Detection of distinct glycosylation patterns on human γ-glutamyl transpeptidase 1 using antibody-lectin sandwich array (ALSA) technology” (BMC Biotechnology, 2014)
